The values below come from ChEMBL document CHEMBL4482324, “Ash1l inhibitors and methods of treatment therewith” (2017).

Each structure is given as a SMILES string. pIC50: −log10 of the molar value. Active and inactive are the calls of the source. The calls are words filed in the database; no cut-off is given here. Some results are limits rather than exact numbers.

In series [1] the target is Histone-lysine N-methyltransferase ASH1L (Homo sapiens, UniProt Q9NR48). Kind of series: Inhibition of MOCR-fused ASH1L SET-BAH ( 2069 to 2833 amino acids) (unknown origin) expressed as in Escherichia coli BL21 (DE3) T1R cells using SAM and chicken mono/dinucleosomes incubated for 1 hr by scintillation counting assay.
Series [2] can be described thus: Cytotoxicity in MLL-AF9 transformed mouse MA9 cells assessed as reduction in cell viability incubated for 12 days with fresh compound replacement for every 4 days by MTT assay. Type of series: functional. On the technique in general: Tetrazolium dyes change colour on reduction, which living cells bring about.
The nature of series [3]: Cytotoxicity in Hoxa9/Meis1 transformed mouse HM2 cells assessed as reduction in cell viability incubated for 12 days with fresh compound replacement for every 4 days by MTT assay. Type of series: cell-based.
Series [4] concerns MV4-11. Kind of series: Cytotoxicity in human MV4-11 cells assessed as reduction in cell viability incubated for 12 days with fresh compound replacement for every 4 days by MTT assay. Format: functional.
Series [5] concerns MOLM-13. Kind of series: Cytotoxicity in human MOLM13 cells assessed as reduction in cell viability incubated for 12 days with fresh compound replacement for every 4 days by MTT assay. Format: functional.
The species named for series [6] is Mus musculus. The experiment in a line: Induction of cell differentiation in MLL-AF9 transformed mouse MA9 cells at 6 to 12 uM. Format: functional.
Series [7] can be described thus: Induction of cell differentiation in Hoxa9/Meis1 transformed mouse HM2 cells at 6 to 12 uM.
Series [8] addresses Histone-lysine N-methyltransferase ASH1L (Mus musculus) (UniProt Q99MY8). Kind of series: Inhibition of ASH1L in MLL-AF9 transformed mouse MA9 cells assessed as downregulation of HOX7 gene expression at 6 to 12 uM by quantitative RT-PCR analysis.
The target is the same in series [9]. The experiment in a line: Inhibition of ASH1L in MLL-AF9 transformed mouse MA9 cells assessed as downregulation of HOX9 gene expression at 6 to 12 uM by quantitative RT-PCR analysis.
Series [10] shares this target. The experiment in a line: Inhibition of ASH1L in MLL-AF9 transformed mouse MA9 cells assessed as downregulation of HOX10 gene expression at 6 to 12 uM by quantitative RT-PCR analysis.
Series [11] has the same target. The experiment in a line: Inhibition of ASH1L in MLL-AF9 transformed mouse MA9 cells assessed as downregulation of Meis1 gene expression at 6 to 12 uM by quantitative RT-PCR analysis.
Series [12] can be described thus: Effect on HOX7 gene expression in Hoxa9/Meis1 transformed mouse HM2 cells at 6 to 12 uM by quantitative RT-PCR analysis. Type of series: ADME.
A short description of series [13]: Effect on HOX9 gene expression in Hoxa9/Meis1 transformed mouse HM2 cells at 6 to 12 uM by quantitative RT-PCR analysis. Type of series: ADME.
Series [14] is described as follows: Effect on HOX10 gene expression in Hoxa9/Meis1 transformed mouse HM2 cells at 6 to 12 uM by quantitative RT-PCR analysis. Format: ADME.
The nature of series [15]: Effect on Meis1 gene expression in Hoxa9/Meis1 transformed mouse HM2 cells at 6 to 12 uM by quantitative RT-PCR analysis. Type of series: ADME.
The target of series [16] is Histone-lysine N-methyltransferase ASH1L (Mus musculus) (UniProt Q99MY8). Kind of series: Inhibition of ASH1L in MLL-AF9 transformed mouse MA9 cells assessed as downregulation of Meis1 gene expression at 1.5 to 6 uM by quantitative RT-PCR analysis.
In series [17] the test system is RS4-11. Kind of series: Cytotoxicity in human RS4:11 cells assessed as reduction in cell viability incubated for 12 days with fresh compound replacement for every 4 days by MTT assay. Type of series: functional.
The test system of series [18] is SEM cells. Kind of series: Cytotoxicity in human SEM cells assessed as reduction in cell viability incubated for 12 days with fresh compound replacement for every 4 days by MTT assay. Type of series: functional.
Series [19] has as its target Histone-lysine N-methyltransferase ASH1L (Mus musculus) (UniProt Q99MY8). The experiment in a line: Inhibition of ASH1L in MLL-AF9 transformed mouse MA9 cells assessed as downregulation of HOX9 gene expression at 1.5 to 6 uM by quantitative RT-PCR analysis.
Series [20] shares this target. Kind of series: Inhibition of ASH1L in MLL-AF9 transformed mouse MA9 cells assessed as downregulation of HOX10 gene expression at 1.5 to 6 uM by quantitative RT-PCR analysis.

Broadly, the pIC50 is the negative decadic logarithm of the IC50, by convention in mol/L. For orientation: GI50 means the concentration that inhibits growth by half. In the case of `NC(=S)c1cccc(-c2cn(CC(CF)CF)c3cc(N)ccc23)c1`, the pIC50 in series [1] is 5.34. Moreover, the concentration for 50% growth inhibition (GI50) in series [2] came out at 6 µM; in series [4] it was 2 µM; in series [5], 9 µM. In addition, the GI50 at 288 h in series [3] was 33 µM. In addition, in series [6], the outcome was Active. Also, the Activity result in [7], in [12], in [13], in [14] and in series [15] was “Non-Toxic” each time. The inhibition entry in series [8], in [9], in series [10] and in [11] was “Active” throughout.
As for `NC(=S)c1cccc(-c2c[nH]c3ccc(O)cc23)c1`, in [1], the negative logarithm of the IC50 (pIC50) is less than 4.00. In addition, the GI50 in series [2] stood at 43 µM; in [4], 27 µM; in [5], 38 µM. Also, in [3], the GI50 at 288 h is 62 µM. The inhibition entry in series [8], in series [9], in series [10] and in series [11] was “inactive” in each case. Also, the Activity entry in series [12], in [13], in [14] and in series [15] was “Non-Toxic” throughout.
As for `NC(=S)c1cccc(-c2cn(CCCC(F)(F)F)c3cc(-c4ccn[nH]4)ccc23)c1`, the inhibition result in [16], in series [19] and in series [20] was “Active” throughout. Also, the negative logarithm of the IC50 (pIC50) in [1] was more than 4.70. Besides, the GI50 in [4] came out at 1.8 µM; in [5], 1.4 µM; in [17], 2.8 µM; in series [18], 1.1 µM.
`NC(=S)c1cccc(-c2cn(CCC(F)F)c3cc(N)ccc23)c1` showed a negative-log IC50 (pIC50) in [1] of more than 4.70.
Still for that read-out and setting: the value for `CCCc1c[nH]c(CC(=O)NCc2ccc3c(-c4cccc(C(N)=S)c4)cn(C4CCN(S(C)(=O)=O)CC4)c3c2)c1` was more than 4.70; that for `NC(=S)c1ccnc(-c2cn(CC(CF)CF)c3cc(CO)ccc23)c1` was more than 4.70; that for `COc1c(C(N)=S)cccc1-c1ccc(O)cc1` was less than 4.00.
Same read-out and setting: the result for `Cc1cc(O)cc(C)c1-c1cccc(C(N)=S)c1` reads less than 4.00; that for `NC(=S)c1cccc(-c2cn(C3CCN(S(=O)(=O)CCCCCc4cccc5c4C(=O)N(C4CCC(=O)NC4=O)C5=O)CC3)c3cc(CNc4nnc(N)s4)ccc23)c1` (stereo not drawn), more than 4.70.
`NC(=S)c1cc(-c2cn(CCC(F)F)c3cc(CO)ccc23)c2ocnc2c1` showed a pIC50 in series [1] of more than 4.70.
As for `NC(=S)c1cccc(-c2cn(CC3CC3(F)F)c3cc(N)ccc23)c1` (stereo not drawn), the negative-log IC50 (pIC50) in series [1] is more than 4.70.
Still for that read-out and setting: the result for `CCn1ccc2c(-c3cccc(C(N)=S)c3)cccc21` reads less than 4.00.
Same read-out and setting: the result for `NC(=S)c1ccc2cc[nH]c2c1` reads less than 4.00.
Take `NC(=S)c1cccc(-c2cn(C3CCOCC3)c3cc(SCCO)ccc23)c1`: in series [1], the pIC50 was more than 4.70.
Still for that read-out and setting: the result for `NC(=S)c1cccc(-c2cn(CCCC(F)(F)F)c3ccc(N)cc23)c1` reads 4.00 to 4.70.
